Values after ≈ are worked out from the molar mass of the structure shown.
How the values were obtained:
[1] = The compound was evaluated for area under the curve in marmosets; format: ADME; conditions: callithrix, in vivo
[2] = The half life period in marmosets; format: ADME; conditions: callithrix, in vivo
[3] = target: Beta-lactamase TEM (Escherichia coli) (UniProt P62593); assay: The dissociation constant of compound was tested for beta-Lactamase stability
Enterobacter cloacae [4] = assay: The compound was tested for minimum inhibitory concentration in Enterobacter cloacae, DR 401108 constitutive depressed type 1 lactamase producer; format: functional
Homo sapiens = organism: Homo sapiens; assay: Compound is evaluated for serum protein binding in human blood (protein binding in marmoset blood); format: functional
[5] = The compound was tested for % urinary recovery in marmosets at the dose of 3 mg/kg; format: ADME, organism-based; parameters: dose 3 mg/kg; conditions: callithrix, urine, read-out: Recovery
Citrobacter freundii [6] = assay: microbe, parasite or virus in culture
Description: Minimum inhibitory concentration in Citrobacter freundii, DR 382031 constitutive depressed type 1

Citrobacter freundii [7] = assay: microbe, parasite or virus in culture; remark: listed apart in the source
Description: Minimum inhibitory concentration in Citrobacter freundii, I+382010 inducible type 1 lactamase producer

Enterobacter cloacae [8] = assay: microbe, parasite or virus in culture
Description: Minimum inhibitory concentration in Enterobacter cloacae, P99+ constitutive depressed type 1 lactamase producer

Enterobacter cloacae [9] = assay: microbe, parasite or virus in culture; remark: listed apart in the source
Description: Minimum inhibitory concentration in Enterobacter cloacae, I+401029 inducible type 1 lactamase producer

Enterobacter cloacae [10] = assay: microbe, parasite or virus in culture; remark: listed apart in the source
Description: Minimum inhibitory concentration in Enterobacter cloacae, P99- inducible type 1 lactamase producer

Pseudomonas aeruginosa [11] = assay: microbe, parasite or virus in culture
Description: Minimum inhibitory concentration in Pseudomonas aeruginosa, 18S inducible type 1 lactamase producer

Pseudomonas aeruginosa [12] = assay: microbe, parasite or virus in culture; remark: listed apart in the source
Description: Minimum inhibitory concentration in Pseudomonas aeruginosa, 18SH constitutive depressed type 1 lactamase producer

Pseudomonas aeruginosa [13] = assay: microbe, parasite or virus in culture; remark: listed apart in the source
Description: Minimum inhibitory concentration in Pseudomonas aeruginosa,799WT parent organism

Providencia stuartii [14] = assay: microbe, parasite or virus in culture
Description: Minimum inhibitory concentration in Pseudomonas stuartii, DR 442049 constitutive depressed type 1 lactamase producer

Providencia stuartii [15] = assay: microbe, parasite or virus in culture; remark: listed apart in the source
Description: Minimum inhibitory concentration in Pseudomonas stuartii, I+442019 inducible type 1 lactamase producer

Pseudomonas aeruginosa [16] = assay: microbe, parasite or virus in culture; remark: listed apart in the source
Description: Minimum inhibitory concentration in Pseudomonas aeruginosa,799/61 permeability mutant

Citrobacter freundii [17] = assay: The compound was tested for minimum inhibitory concentration in Citrobacter freundii, DR 382031 constitutive depressed type 1; format: functional
Citrobacter freundii [18] = assay: The compound was tested for minimum inhibitory concentration in Citrobacter freundii,I+382010 inducible type 1 lactamase producer; format: functional
Enterobacter cloacae [19] = assay: The compound was tested for minimum inhibitory concentration in Enterobacter cloacae,I+401029 inducible type 1 lactamase producer; format: functional
Pseudomonas aeruginosa [20] = assay: The compound was tested for minimum inhibitory concentration in Pseudomonas aeruginosa,799/61 permeability mutant; format: functional
Pseudomonas aeruginosa [21] = assay: The compound was tested for minimum inhibitory concentration in Pseudomonas aeruginosa,799WT parent organism; format: functional
Providencia stuartii [22] = assay: (§1) The compound was tested for minimum inhibitory concentration in Pseudomonas stuartii,I+442019 inducible type 1 lactamase producer; format: functional
Enterobacter cloacae [23] = assay: microbe, parasite or virus in culture; remark: listed apart in the source
Description: Minimum inhibitory concentration in Enterobacter cloacae, DR 401108 constitutive depressed type 1 lactamase producer

Staphylococcus aureus [24] = assay: The compound was tested for minimum inhibitory concentration in Staphylococcus aureus Oxford penicillin sensitive Staphylococcus aureus; format: functional
Staphylococcus aureus [25] = assay: The compound was tested for minimum inhibitory concentration in Staphylococcus aureus,147N penicillin sensitive Staphylococcus aureus; format: functional
Escherichia coli [26] = assay: microbe, parasite or virus in culture
Description: In vitro minimum inhibitory concentration against Escherichia coli (DC0 parent organism).

Escherichia coli [27] = assay: microbe, parasite or virus in culture; remark: listed apart in the source
Description: In vitro minimum inhibitory concentration against Escherichia coli (DC2 permeability mutant).

Pseudomonas aeruginosa [28] = assay: microbe, parasite or virus in culture; remark: listed apart in the source
Description: In vitro minimum inhibitory concentration against Pseudomonas aeruginosa (PU21).

Citrobacter freundii [29] = assay: The compound was tested for minimum inhibitory concentration in Citrobacter freundii, I+382010 inducible type 1 lactamase producer; format: functional
Enterobacter cloacae [30] = assay: The compound was tested for minimum inhibitory concentration in Enterobacter cloacae,P99- inducible type 1 lactamase producer; format: functional
Pseudomonas aeruginosa [31] = assay: The compound was tested for minimum inhibitory concentration in Pseudomonas aeruginosa,18S inducible type 1 lactamase producer; format: functional
Citrobacter freundii [32] = assay: The compound was tested for minimum inhibitory concentration in Citrobacter freundii, Citrobacter freundii, DR 382031; format: functional
Providencia stuartii [33] = assay: as §1; format: functional, pseudomonas stuartiii
[34] = The compound was evaluated for area under the curve; format: ADME
[35] = The half life period was tested; format: ADME
Staphylococcus aureus [36] = assay: microbe, parasite or virus in culture
Staphylococcus aureus [37] = assay: microbe, parasite or virus in culture; remark: listed apart in the source

Sequence of Beta-lactamase TEM (Escherichia coli) (P62593 whole entry): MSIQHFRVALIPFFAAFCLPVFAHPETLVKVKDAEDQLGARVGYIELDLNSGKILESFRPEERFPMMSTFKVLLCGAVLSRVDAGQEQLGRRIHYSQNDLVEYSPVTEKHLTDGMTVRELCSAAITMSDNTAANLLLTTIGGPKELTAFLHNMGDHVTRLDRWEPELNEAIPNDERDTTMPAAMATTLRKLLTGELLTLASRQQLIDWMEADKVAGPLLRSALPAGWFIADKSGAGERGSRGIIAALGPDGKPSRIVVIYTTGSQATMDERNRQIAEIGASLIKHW

Row | Structure (SMILES) | Activity (Homo sapiens) | dose excreted [5] | MIC (Citrobacter freundii [6]) | MIC (Citrobacter freundii [7]) | MIC (Enterobacter cloacae [8]) | MIC (Enterobacter cloacae [9]) | MIC (Enterobacter cloacae [10]) | MIC (Pseudomonas aeruginosa [11]) | MIC (Pseudomonas aeruginosa [12]) | MIC (Pseudomonas aeruginosa [13]) | MIC (Providencia stuartii [14]) | MIC (Providencia stuartii [15]) | MIC (Pseudomonas aeruginosa [16]) | MIC (Citrobacter freundii [17]) | MIC (Enterobacter cloacae [23]) | other results
1 | CC(C)(O/N=C(\C(=O)N[C@@H]1C(=O)N2C(C(=O)O)=C(CNC(=O)c3cc(Cl)c(O)c(O)c3Cl)CSC12)c1csc(N)n1)C(=O)O (stereo partly drawn) | 98.7% | 16.2% | 2 µg/mL (≈ 2.9 µM) | 0.008 µg/mL (≈ 0.0116 µM) | 4 µg/mL (≈ 5.8 µM) | 0.008 µg/mL (≈ 0.0116 µM) | 0.03 µg/mL (≈ 0.0435 µM) | 0.008 µg/mL (≈ 0.0116 µM) | 0.015 µg/mL (≈ 0.0218 µM) | 0.008 µg/mL (≈ 0.0116 µM) | 1 µg/mL (≈ 1.45 µM) | 0.06 µg/mL (≈ 0.087 µM) | 0.008 µg/mL (≈ 0.0116 µM) | – | – | AUC [1]: 461 mg/h/L; half-life [2]: 8.22 h; pKa [3]: 6.3; MIC (Enterobacter cloacae [4]): 4 µg/mL (≈ 5.8 µM)
2 | CC(C)(O/N=C(\C(=O)N[C@@H]1C(=O)N2C(C(=O)O)=C(CNC(=O)c3cnc4cc(O)c(O)cc4c3O)CSC12)c1csc(N)n1)C(=O)O (stereo partly drawn) | – | – | – | – | 0.06 µg/mL (≈ 0.0873 µM) | – | 0.03 µg/mL (≈ 0.0436 µM) | 0.008 µg/mL (≈ 0.0116 µM) | 0.008 µg/mL (≈ 0.0116 µM) | – | 2 µg/mL (≈ 2.91 µM) | – | – | 0.125 µg/mL (≈ 0.182 µM) | 1 µg/mL (≈ 1.45 µM) | MIC (Citrobacter freundii [18]): 0.008 µg/mL (≈ 0.0116 µM); MIC (Enterobacter cloacae [19]): 0.03 µg/mL (≈ 0.0436 µM); MIC (Pseudomonas aeruginosa [20]): 0.008 µg/mL (≈ 0.0116 µM); MIC (Pseudomonas aeruginosa [21]): 0.008 µg/mL (≈ 0.0116 µM); MIC (Providencia stuartii [22]): 0.03 µg/mL (≈ 0.0436 µM)
3 | CC(C)(O/N=C(\C(=O)N[C@@H]1C(=O)N2C(C(=O)O)=C(CCNC(=O)c3cc(O)c(O)c(Br)c3)CSC12)c1csc(N)n1)C(=O)O (stereo partly drawn) | 99% | 17.5% | – | 0.008 µg/mL (≈ 0.0112 µM) | 2 µg/mL (≈ 2.8 µM) | 0.015 µg/mL (≈ 0.021 µM) | 0.03 µg/mL (≈ 0.042 µM) | 0.008 µg/mL (≈ 0.0112 µM) | 0.015 µg/mL (≈ 0.021 µM) | 0.008 µg/mL (≈ 0.0112 µM) | 4 µg/mL (≈ 5.61 µM) | 0.25 µg/mL (≈ 0.35 µM) | 0.008 µg/mL (≈ 0.0112 µM) | 1 µg/mL (≈ 1.4 µM) | 8 µg/mL (≈ 11.2 µM) | MIC (Staphylococcus aureus [24]): 16 µg/mL (≈ 22.4 µM); MIC (Staphylococcus aureus [25]): 16 µg/mL (≈ 22.4 µM); MIC (Escherichia coli [26]): 0.008 µg/mL (≈ 0.0112 µM); MIC (Escherichia coli [27]): 0.008 µg/mL (≈ 0.0112 µM); MIC (Pseudomonas aeruginosa [28]): 0.008 µg/mL (≈ 0.0112 µM)
4 | CC(C)(O/N=C(\C(=O)N[C@@H]1C(=O)N2C(C(=O)O)=C(CNC(=O)c3ccc4cc(O)c(O)cc4c3)CSC12)c1csc(N)n1)C(=O)O (stereo partly drawn) | – | – | – | – | 16 µg/mL (≈ 23.9 µM) | – | – | – | 0.125 µg/mL (≈ 0.186 µM) | 0.03 µg/mL (≈ 0.0447 µM) | 8 µg/mL (≈ 11.9 µM) | – | 0.008 µg/mL (≈ 0.0119 µM) | 16 µg/mL (≈ 23.9 µM) | > 128 µg/mL | MIC (Citrobacter freundii [29]): 0.008 µg/mL (≈ 0.0119 µM); MIC (Enterobacter cloacae [19]): 0.125 µg/mL (≈ 0.186 µM); MIC (Enterobacter cloacae [30]): 0.125 µg/mL (≈ 0.186 µM); MIC (Pseudomonas aeruginosa [31]): 0.008 µg/mL (≈ 0.0119 µM); MIC (Providencia stuartii [22]): 0.25 µg/mL (≈ 0.373 µM)
5 | CCn1cc(C(=O)NCC2=C(C(=O)O)N3C(=O)[C@@H](NC(=O)/C(=N\OC(C)(C)C(=O)O)c4csc(N)n4)C3SC2)c(=O)c2c(C#N)c(O)c(O)cc21 (stereo partly drawn) | – | – | – | 0.008 µg/mL (≈ 0.0108 µM) | 0.015 µg/mL (≈ 0.0203 µM) | 0.015 µg/mL (≈ 0.0203 µM) | 0.015 µg/mL (≈ 0.0203 µM) | 0.008 µg/mL (≈ 0.0108 µM) | 0.008 µg/mL (≈ 0.0108 µM) | – | – | – | – | – | 0.5 µg/mL (≈ 0.675 µM) | MIC (Citrobacter freundii [32]): 0.03 µg/mL (≈ 0.0405 µM); MIC (Pseudomonas aeruginosa [20]): 0.008 µg/mL (≈ 0.0108 µM); MIC (Pseudomonas aeruginosa [21]): 0.008 µg/mL (≈ 0.0108 µM); MIC (Providencia stuartii [33]): 0.008 µg/mL (≈ 0.0108 µM); pKa (physchem): < 5.5
6 | CC(C)(O/N=C(\C(=O)N[C@@H]1C(=O)N2C(C(=O)[O-])=C(C[n+]3ccccc3)CS[C@H]12)c1csc(N)n1)C(=O)O [CEFTAZIDIME] | – | – | 128 µg/mL (≈ 234 µM) | 0.125 µg/mL (≈ 0.229 µM) | – | – | – | 2 µg/mL (≈ 3.66 µM) | – | 0.125 µg/mL (≈ 0.229 µM) | 4 µg/mL (≈ 7.32 µM) | 0.25 µg/mL (≈ 0.457 µM) | 0.008 µg/mL (≈ 0.0146 µM) | – | – | AUC [34]: 14 mg/h/L; half-life [35]: 0.7 h
7 | CCn1cc(C(=O)NCC2=C(C(=O)O)N3C(=O)[C@@H](NC(=O)/C(=N\OC(C)(C)C(=O)O)c4csc(N)n4)C3SC2)c(=O)c2cc(O)c(O)cc21 (stereo partly drawn) | 99.2% | 13.9% | 0.125 µg/mL (≈ 0.175 µM) | 0.008 µg/mL (≈ 0.0112 µM) | 0.25 µg/mL (≈ 0.349 µM) | 0.06 µg/mL (≈ 0.0838 µM) | 0.06 µg/mL (≈ 0.0838 µM) | 0.008 µg/mL (≈ 0.0112 µM) | 0.008 µg/mL (≈ 0.0112 µM) | 0.008 µg/mL (≈ 0.0112 µM) | 8 µg/mL (≈ 11.2 µM) | 0.25 µg/mL (≈ 0.349 µM) | 0.008 µg/mL (≈ 0.0112 µM) | – | 1 µg/mL (≈ 1.4 µM) | AUC [1]: 238.5 mg/h/L; half-life [2]: 3.47 h; pKa [3]: 7.2; MIC (Staphylococcus aureus [36]): 16 µg/mL (≈ 22.4 µM); MIC (Escherichia coli [26]): 0.008 µg/mL (≈ 0.0112 µM); MIC (Escherichia coli [27]): 0.008 µg/mL (≈ 0.0112 µM); MIC (Pseudomonas aeruginosa [28]): 0.06 µg/mL (≈ 0.0838 µM); MIC (Staphylococcus aureus [37]): 16 µg/mL (≈ 22.4 µM)

Source: ChEMBL document CHEMBL1126299, “Synthesis and structure-activity relationships of cephalosporins with C-3' catechol-containing residues” (J Med Chem, 1992)
